Values quoted from earlier work, collected in patent US10858526B2, “Water-based ink composition for ink jet recording and coloring material liquid” (Seiko Epson Corporation, priority 2017, dated 2020).

Conditions: water-soluble organic solvent

water-octanol partition coefficient (log P)	Structure (SMILES)
0.28	CCCC(O)CCO (centres unmarked) [1,3-hexanediol]
0.56	CCCCOCCOCCO [butyl diglycol]
